“Also recorded” adds a separate entry of the source. Read-outs that look alike come from different tables or passages of the source.
Key:
[1] = tested on: hepatic fibrosis model mice; test: Tetrachloromethane-induced hepatic fibrosis in mice; type: in vivo, C57 mice
Procedure: Animals: 30 male C57 mice, SPF grade, 8 weeks old, weighing about 20 g, purchased from Beijing Vital River. All animals maintained a 12-hour alternating circadian rhythm and were given ad libitum access to food and water. […] The mice were all fed food and water normally, and the modeling lasted for 3 weeks. The mice in the model group and each of the administration groups were injected twice a week with a 25% CCl4 oil solution at a dose of 2 mL/kg, and the mice in the control group were injected with an oil solvent with the same volume. The administration was started at the same time of molding. […] After 3 weeks of administration, the mice were all fed food and water normally. Each group of mice was weighed every day, and their body weight, hair, feces, and activities were carefully observed and recorded. Twenty-four hours after the sixth injection of CCl4, the mice were dissected for sampling. Blood was collected from the orbit, the mice were euthanized, and the liver was collected. The right lobular tissue of the liver was fixed with 4% paraformaldehyde and used for sectioning followed by HE and sirius red staining. Part of liver tissues were divided into 3 parts and snap-frozen in liquid nitrogen for subsequent assays of other indexes. The pre-treated tissue was sent to Wuhan Servicebio Technology Co., Ltd. for preparing HE-stained sections and sirius red-stained sections. The liver tissue stored at −80° C. was taken and placed in liquid nitrogen, and about 200 mg of liver tissue was rapidly cut off. Hydroxyproline in the liver tissue was assayed according to the method in the product's instruction (Beijing Solarbio Science & Technology Co., Ltd., BC0255).

[2] = tested on: non-PPAR nuclear receptors; test: GAL4 hybrid reporter gene method, non-PPAR nuclear receptors (summary statement); type: cell-based; conditions: 1 μM
Procedure: Reporter gene plasmids for different nuclear receptors were constructed by referring to the method in the literature (Journal of Medicinal Chemistry 2022, 65, 2571-2592). Transfection working solutions for different nuclear receptors were prepared and added into COS-7 cells. The preparation method for the transfection working solution was as follows: the constructed pBIND-Gal4-PPARα (LBD) (or pBIND-Gal4-PPARδ (LBD) plasmid or pBIND-Gal4-PPARγ (LBD) plasmid or pBIND-Gal4-RARα (LBD) plasmid or pBIND-Gal4-RARγ (LBD) plasmid or pBIND-Gal4-RARβ (LBD) plasmid or pBIND-Gal4-RORα (LBD) plasmid or pBIND-Gal4-RORγ (LBD) plasmid or pBIND-Gal4-RORβ (LBD) plasmid or pBIND-Gal4-FXR (LBD) plasmid or pBIND-Gal4-RXRα. (LBD) plasmid or pBIND-Gal4-RXRγ (LBD) plasmid or pBIND-Gal4-RXRβ (LBD) plasmid or pBIND-Gal4-VDR (LBD) plasmid or pBIND-Gal4-LXRα (LBD) plasmid or pBIND-Gal4-LXRβ (LBD) plasmid or pBIND-Gal4-[…] (LBD) plasmid or pBIND-Gal4-PXR (LBD) plasmid or pBIND-Gal4-CAR (LBD) plasmid), 15 μg of pGL4.35-9×Gal4 UAS plasmid (purchased from Promega (Beijing) Biotech Co., Ltd.), and 60 μL of a transfection reagent ([…], purchased from Wuhan ABclonal Biotechnology Co., Ltd.) were added to 2 mL of Opti-MEM, the mixture was left to stand at room temperature for 15 min, and then the working solution was obtained.

[3] = molecular target: T1, PPARα (Homo sapiens, UniProt Q07869); test: GAL4 hybrid reporter gene method, PPARα agonistic activity; type: cell-based; conditions: Cos-7 cells, Gal4-PPARα (LBD); GW7647 10 nM = 100%; 16 h
T1 construct: expressed in transfected cells; host or cells: COS-7
T1 sequence (Q07869 239-466 limits assumed): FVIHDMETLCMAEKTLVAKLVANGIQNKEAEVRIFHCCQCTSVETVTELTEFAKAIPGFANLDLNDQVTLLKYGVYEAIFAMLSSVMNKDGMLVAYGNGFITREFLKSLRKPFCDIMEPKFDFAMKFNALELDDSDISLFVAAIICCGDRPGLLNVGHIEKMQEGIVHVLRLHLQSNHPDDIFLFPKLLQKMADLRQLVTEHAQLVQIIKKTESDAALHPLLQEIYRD
Procedure: Cos-7 cells (African green monkey kidney fibroblasts, commonly used tool cells) were cultured in a 10-cm cell culture dish with a DMEM complete medium containing 10% fetal bovine serum. When growing at a density of about 70%, the cells were ready for transfection. […] The working solution described above was then combined with 8 mL of the DMEM complete medium, and the mixture was added to the cell culture dish for cell transfection. After 4 h of transfection, the cells were digested, resuspended, and seeded into a 96-well plate at 25,000 cells/well. […] 10 μL of a reporter gene detection solution (purchased from Shanghai Beyotime Biological Tech. Co., Ltd.) was added. After the resulting solution was mixed and reacted, biological fluorescence was detected by using a multifunctional microplate reader, and corresponding half maximal effective concentration (EC50) values were calculated according to the detection values. […] Transfection working solutions for different nuclear receptors were prepared and added into COS-7 cells. The preparation method for the transfection working solution was as follows: the constructed pBIND-Gal4-PPARα (LBD) (or pBIND-Gal4-PPARδ (LBD) plasmid or pBIND-Gal4-PPARγ (LBD) plasmid or pBIND-Gal4-RARα (LBD) plasmid or pBIND-Gal4-RARγ (LBD) plasmid or pBIND-Gal4-RARβ (LBD) plasmid or pBIND-Gal4-RORα (LBD) plasmid or pBIND-Gal4-RORγ (LBD) plasmid or pBIND-Gal4-RORβ (LBD) plasmid or pBIND-Gal4-FXR (LBD) plasmid or pBIND-Gal4-RXRα.

[4] = Pharmacokinetic evaluation in rats; type: in vivo, SD rats; conditions: for AUC(0-inf): read-out: Area under the curve AUC(0-∞); for Tmax: read-out: Peak time Tmax
Procedure: Animals: 6 SPF-grade male SD rats were purchased from Beijing Vital River Laboratory Animal Technology Co., Ltd.
Grouping: rats were divided into 2 groups, with 3 rats in each group; one group was an oral administration group, and the other group was an intravenous injection group. The dose in the oral administration group was 10 mpk, and the dose in the intravenous injection group was 2 mpk.
Experimental procedures: after rats in the intravenous injection group were administered by tail vein injection, about 0.25 mL of blood was collected from the orbit at 0.083 h, 0.25 h, 0.5 h, 1 h, 2 h, 4 h, 6 h, 8 h, and 24 h, respectively, and then heparin sodium was rapidly added for anticoagulation after blood collection. The blood was placed on ice after collection. Rats in the oral administration group were fasted for 12 h before administration and fed 4 h after administration. After the rats were administered orally, about 0.25 mL of blood was collected from the orbit at 0.083 h, 0.25 h, 0.5 h, 1 h, 2 h, 4 h, 6 h, 8 h, and 24 h, respectively, and then heparin sodium was rapidly added for anticoagulation after blood collection. The blood was placed on ice after collection. All samples were centrifuged at 6000 r/min for 3 min in a low-temperature centrifuge, and plasma was obtained after separation. The content of the compound in the plasma was detected via LC-MS/MS-18, and relevant pharmacokinetic parameters were calculated according to the plasma concentration data of different time points.

[5] = male, SD, rat, plasma, 2 mg/kg, intravenous injection, 2 mpk
[6] = male, SD, rat, plasma, 10 mg/kg, oral administration, 10 mpk

Structure (SMILES): Cc1cc(CN2C(=O)CN(c3ccc(C(F)(F)F)cc3)C2=O)cc(C)c1OC(C)(C)C(=O)O [Compound 1, 2-(4-((2,5-Dioxo-3-(4-(trifluoromethyl)phenyl)imidazolidin-1-yl)methyl)-2,6-dimethylphenoxy)-2-methylpropionic Acid]
- collagen deposition in liver, sirius red staining (FIG. 15) ([1]; CCl4 model): significantly reduce collagen deposition
- effect on the hepatic fibrosis mouse model (conclusion) ([1]; CCl4 model): protective effect
- inflammatory infiltration in liver, HE staining (FIG. 14) ([1]; CCl4 model): reduce inflammatory infiltration
- hydroxyproline content in the liver (FIG. 13) ([1]; CCl4 model, 0.03 and 0.1 mg/kg intragastric daily, 3 weeks): dose-dependently reduce the hydroxyproline content
- improving effect on collagen deposition versus GFT505 ([1]; compound 1 0.1 mg/kg vs GFT505 10 mg/kg): superior to that of GFT505 at 10 mg/kg
- effect on hydroxyproline content versus GFT505 ([1]; compound 1 0.1 mg/kg vs GFT505 at 30 mg/kg (so in the source)): superior to that of GFT505 at 30 mg/kg
- agonistic effect on non-PPAR nuclear receptors [2]: no significant agonistic effect
- EC50 [3]: 700 pM
- PPARα EC50 (nM) [3]: picomolar levels; also recorded: low nanomolar levels
- pharmacokinetic properties ([4]; in vivo): good pharmacokinetic properties
- Half-life T1/2 ([4]; intravenous injection, 2 mpk): 4.82 ± 1.05 h
- Peak concentration Cmax ([4]; intravenous injection, 2 mpk): 4306.67 ± 1546.13 ng/mL
- AUC(0-inf) [4, 5]: 4250 ± 1240 ng·h/mL
- Tmax [4, 5]: 0.08 h
- AUC(0-inf) [4, 6]: 22300 ± 3550 ng·h/mL
- bioavailability ([4]; male, SD, rat, plasma, 10 mg/kg, oral administration, 10 mpk, read-out: Bioavailability F (%)): 104.7 ± 0.17%
- Tmax [4, 6]: 2.25 ± 3.25 h
- Half-life T1/2 ([4]; oral administration, 10 mpk): 6.72 ± 1.39 h
- Peak concentration Cmax ([4]; oral administration, 10 mpk): 2816.67 ± 1020.41 ng/mL

From patent publication US20250136555A1 (HARBIN MEDISAN PHARMACEUTICAL CO., LTD., priority 2022, published 2025)
